Data: patent US20220305003A1, “METHODS OF TREATING CANCER WITH AN INHIBITOR OF ZNF827” (CHILDREN'S MEDICAL RESEARCH INSTITUTE, priority 2019, published 2022)

What was measured:
[1] = tested on: U-2 OS cells; assay: RPA foci by immunofluorescence in U-2 OS cells; type: cell-based
Description: (§1) Topotecan and aphidicolin were used in this study. For experiments where they were used to cause replication stress and DNA damage, cells were treated with topotecan 2 μg/mL for either 1 hour or 24 hours, or aphidicolin 1 μM for 20 hours. For replication fork stalling induction in the PCNA colocalisation experiments, cells were treated with aphidicolin 0.4 μM for 6-8 hours. Topotecan and aphidicolin were dissolved in DMSO. DMSO was used as a control.
(§2) Cells were transfected using Lipofectamine RNAiMAX transfection reagent (ThermoFisher Scientific) with an siRNA concentration of […]. For transfection in a 75 cm^2flask, 3 mL reduced serum medium Opti-MEM (Gibco) was combined with 15 μL of 20 μM siRNA, mixed gently to cover the surface area of the flask and incubated at room temperature for 5 minutes. 30 μL of Lipofectamine RNAiMAX transfection reagent was then added to the mixture, and mixed and incubated for a further 15 minutes at room temperature. Meanwhile, cells to be transfected were trypsinised, resuspended in DMEM supplemented with 10% FCS, and counted using a Beckman Coulter cell counter. 0.8-1×10^6 cells in DMEM supplemented with 10% FCS were directly pipetted onto the transfection mixture in the flask, and shaken gently to mix. Additional DMEM supplemented with 10% FCS was added to the flask up to a total volume of 15 mL. Cells were harvested 72 hours post-transfection for knockdown validation and subsequent experiments.
(§3) Cells cultured on coverslips were fixed in 2% paraformaldehyde in PBS at room temperature for 10 minutes. Cells fixed on coverslips were rinsed with deionised water, and then permeabilised using KCM buffer (120 mM potassium chloride, 20 mM NaCl, 10 mM Tris, pH 7.5, 0.1% Triton X-100) at room temperature for 10 minutes. Coverslips were blocked with antibody diluent buffer (ABDIL—20 mM Tris-Cl, pH 7.5, 2% BSA, 0.2% fish gelatine, 150 mM NaCl, 0.1% Triton X-100, 0.1% sodium azide) containing 100 μg/mL RNase A at room temperature for one hour. […] Quantitated analysis was conducted by automation with CellProfiler (Broad Institute).

[2] = tested on: HT1080 cells; assay: RPA foci by immunofluorescence in HT1080 cells; type: cell-based
Description: as §1, §2, §3

[3] = target: T1, ZNF827 ZnF1-3 deleted (Homo sapiens, UniProt Q17R98 SEQ:4-997); assay: EMSA; interaction abolished; conditions: tags: HaloTag (pHTN), expressed in HEK 293T, tag removed by HaloTEV cleavage; label: 32P (gamma)
T1 chain: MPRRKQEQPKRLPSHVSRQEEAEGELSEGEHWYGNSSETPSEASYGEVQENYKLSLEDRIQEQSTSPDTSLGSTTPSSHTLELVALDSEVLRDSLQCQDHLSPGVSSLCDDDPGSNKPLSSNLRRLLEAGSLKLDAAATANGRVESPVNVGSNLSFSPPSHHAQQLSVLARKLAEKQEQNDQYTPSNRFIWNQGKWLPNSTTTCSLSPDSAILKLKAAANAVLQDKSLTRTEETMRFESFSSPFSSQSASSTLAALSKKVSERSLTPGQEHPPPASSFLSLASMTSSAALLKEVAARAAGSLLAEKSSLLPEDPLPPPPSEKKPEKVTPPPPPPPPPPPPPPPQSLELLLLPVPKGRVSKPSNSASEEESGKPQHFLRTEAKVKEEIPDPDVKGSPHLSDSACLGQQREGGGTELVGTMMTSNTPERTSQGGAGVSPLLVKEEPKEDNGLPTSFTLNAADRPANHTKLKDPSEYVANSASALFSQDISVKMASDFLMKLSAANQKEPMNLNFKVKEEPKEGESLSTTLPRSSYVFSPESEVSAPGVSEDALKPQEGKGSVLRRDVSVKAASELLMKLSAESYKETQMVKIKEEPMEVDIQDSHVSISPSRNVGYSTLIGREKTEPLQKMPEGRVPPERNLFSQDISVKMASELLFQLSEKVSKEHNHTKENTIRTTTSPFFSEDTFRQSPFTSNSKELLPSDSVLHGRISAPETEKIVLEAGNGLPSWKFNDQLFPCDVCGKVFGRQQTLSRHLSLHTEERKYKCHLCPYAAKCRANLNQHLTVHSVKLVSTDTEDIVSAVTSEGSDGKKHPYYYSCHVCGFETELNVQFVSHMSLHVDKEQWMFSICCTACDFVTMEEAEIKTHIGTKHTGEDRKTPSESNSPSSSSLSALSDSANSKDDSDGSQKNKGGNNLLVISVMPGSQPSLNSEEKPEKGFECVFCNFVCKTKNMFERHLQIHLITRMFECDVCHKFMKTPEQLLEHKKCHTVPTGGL
Description: Purified proteins were quantified using a BCA assay using the Pierce™ BCA Protein Assay Kit according to the manufacturer's instructions. Equal amounts of purified proteins were incubated in binding buffer (20 mM HEPES-KOH, pH7.9, 100 mM KCl, 0.8 mM ZnCl₂, 0.2 mM EDTA, 5% glycerol, 0.5 mM DTT and 0.5 mM PMSF) with 6.25 μg/mL poly (dI:dC) and 50 ng/μL BSA on ice for 20 minutes. ˜0.12 nM (˜2.5 fmol) γ-³²P labelled DNA oligonucleotide (see Table 3) probes were added to samples and incubated on ice for another 30 minutes. Binding reactions were loaded onto an 8% native acrylamide/bisacrylamide (19:1, Biorad) gel pre-run at 100V in 0.5× TB buffer (89 mM Tris, 89 mM boric acid) for 20 minutes. Gels were electrophoresed at 150 V for 150 minutes at 4° C., dried at 65° C. for 45 minutes, and then exposed to a Phosphor screen overnight. Gel images were obtained by scanning the screens with a Typhoon FLA9500 Imager (GE Life Sciences).

[4] = agent alone (topotecan 2 μg/mL 24 hr, or 72 hr siRNA knockdown in unchallenged cells)
[5] = 72 hr siRNA knockdown of ZNF827 in topotecan-treated cells (2 μg/mL, 24 hr)

Molecule	total nuclear RPA foci [1, 4]	total nuclear RPA foci [2, 4]	total nuclear RPA foci [1, 5]	total nuclear RPA foci [2, 5]	binding result [3]
CC[C@@]1(O)C(=O)OCc2c1cc1n(c2=O)Cc2cc3c(CN(C)C)c(O)ccc3nc2-1 [topotecan]	greatly induced RPA foci	RPA foci only became visible upon topotecan treatment	–	–	–
siZNF827: Stealth RNAi siRNA ZNF827HSS135819 duplex oligoribonucleotides (Invitrogen), SEQ ID NO: 12 and 13 (chain 1 GGGCAGUCUUCUGGCUGAGAAAUCA; chain 2 UGAUUUCUCAGCCAGAAGACUGCCC; listed as RNA, further chemistry not given here)	substantially increased the total number of nuclear RPA foci	did not change the total number of nuclear RPA foci	did not cause an observable increase in overall RPA foci	significantly greater increase in overall nuclear RPA foci	–
TTAGGGTTAGGGTTAGGG (ssDNA) [ss telomeric G rich oligo]	–	–	–	–	no binding
